According to patent publication US8658565B2 (priority 2010, dated 2014):
Like-named read-outs stand apart in the source and are kept apart here.

How the values were obtained:
Assay type in all cases: in vivo
[1] = test system: Alternaria solani; assay: Alternaria test (tomatoes)/preventive, Example H: biological control agent sprayed first, (I-1) 4 h later; conditions: (I-1) alone 25 ppm a.i., evaluated 3 days after inoculation
Description: (§1) To produce a suitable preparation of active compound, 1 part by weight of the dithiino-tetracarboximide is mixed with 24.5 parts by weight of acetone, 24.5 parts by weight of dimethylacetamide and 1 part by weight of emulsifier alkylaryl polyglycol ether. The concentrate is diluted with water to the desired concentration.
(§2) Serenade® WPO, a wettable powder formulation containing the bacteria Bacillus subtilis (variety QST 713), is mixed and diluted with water to the desired concentration.
(§3) Young plants are sprayed with the aqueous preparation of the biological control agents, e.g. Serenade® WPO, at the stated rate of application. 4 hours later and after the spray coating has dried on, the plants are sprayed with the preparation of (I-1) 2,6-dimethyl-1H,5H-[1,4]dithiino[2,3-c:5,6-c′]dipyrrole-1,3,5,7(2H,6H)-tetrone at the stated rate of application. The next day the plants are inoculated with an aqueous spore suspension of Alternaria solani. The plants are then placed in an incubation cabinet at approximately 20° C. and a relative atmospheric humidity of 100%. The test is evaluated 3 days after the inoculation. 0% means an efficacy which corresponds to that of the untreated control while an efficacy of 100% means that no disease is observed.

[2] = test system: Botrytis cinerea; assay: Botrytis test (beans)/preventive, Example I: biological control agent sprayed first, (I-1) 4 h later; conditions: (I-1) alone 12.5 ppm a.i., lesion size evaluated 2 days after inoculation
Description: as §1
BioNem WP®, a wettable powder formulation containing the bacteria Bacillus firmus, is mixed and diluted with water to the desired concentration.
Young plants are sprayed with the aqueous preparation of the biological control agents, e.g. BioNem WP®, at the stated rate of application. 4 hours later and after the spray coating has dried on, the plants are sprayed with the preparation of (I-1) 2,6-dimethyl-1H,5H-[1,4]dithiino[2,3-c:5,6-c′]dipyrrole-1,3,5,7(2H,6H)-tetrone at the stated rate of application. The next day the plants are inoculated by placing 2 small pieces of agar covered with growth of Botrytis cinerea on each leaf. The inoculated plants are placed in a darkened chamber at 20° C. and a relative atmospheric humidity of 100%. 2 days after the inoculation, the size of the lesions on the leaves is evaluated. 0% means an efficacy which corresponds to that of the untreated control, while an efficacy of 100% means that no disease is observed.

[3] = test system: Venturia inaequalis; assay: Venturia test (apples)/preventive, Example C: (I-1) sprayed first, biological control agent 4 h later; conditions: (I-1) alone 25 ppm a.i., evaluated 10 days after inoculation
Description: as §1, §2
Young plants are sprayed with the preparation of (I-1) 2,6-dimethyl-1H,5H-[1,4]dithiino[…]dipyrrole-1,3,5,7(2H,6H)-tetrone at the stated rate of application. 4 hours later and after the spray coating has dried on, the plants are sprayed with the aqueous preparation of the biological control agents, e.g. Serenade® WPO, at the stated rate of application. The next day the plants are inoculated with an aqueous conidia suspension of the causal agent of apple scab (Venturia inaequalis) and then remain for 1 day in an incubation cabinet at approximately 20° C. and a relative atmospheric humidity of 100%. The plants are then placed in a greenhouse at approximately 21° C. and a relative atmospheric humidity of approximately 90%. The test is evaluated 10 days after the inoculation. […]

[4] = test system: Phytophthora infestans; conditions: tomatoes; (I-1) alone 50 ppm a.i.; evaluated 3 days after inoculation
[5] = test system: Alternaria solani; assay: Alternaria test (tomatoes)/preventive, Example D: (I-1) sprayed first, biological control agent 4 h later; conditions: (I-1) alone 25 ppm a.i., evaluated 3 days after inoculation
Description: as §1
Shemer, a water dispersible granule formulation containing the yeast Metschnikowia fructicola, is mixed and diluted with water to the desired concentration.
Young plants are sprayed with the preparation of (I-1) 2,6-dimethyl-1H,5H-[1,4]diithiino[2,3-c:5,6-c′]dipyrrole-1,3,5,7(2H,6H)-tetrone at the stated rate of application. 4 hours later and after the spray coating has dried on, the plants are sprayed with the aqueous preparation of the biological control agents, e.g. Shemer, at the stated rate of application. The next day the plants are inoculated with an aqueous spore suspension of Alternaria solani. The plants are then placed in an incubation cabinet at approximately 20° C. and a relative atmospheric humidity of 100%. The test is evaluated 3 days after the inoculation. 0% means an efficacy which corresponds to that of the untreated control while an efficacy of 100% means that no disease is observed.

[6] = test system: Sphaerotheca fuliginea; assay: Sphaerotheca test (cucumbers)/preventive, Example F: biological control agent sprayed first, (I-1) 4 h later; conditions: (I-1) alone 50 ppm a.i., evaluated 7 days after inoculation
Description: as §1, §2
as §3, with “of Sphaerotheca fuliginea.” for “of Alternaria solani.”, “in a greenhouse” for “in an incubation cabinet”, “approximately 23°” for “approximately 20°”, “of approximately 70%.” for “of 100%.”, “evaluated 7” for “evaluated 3”, “untreated control,” for “untreated control”

[7] = test system: Venturia inaequalis; assay: Venturia test (apples)/preventive, Example G: biological control agent sprayed first, (I-1) 4 h later; conditions: (I-1) alone 12.5 ppm a.i., evaluated 10 days after inoculation
Description: as §1, §2
Young plants are sprayed with the aqueous preparation of the biological control agents, e.g. Serenade® WPO, at the stated rate of application. 4 hours later and after the spray coating has dried on, the plants are sprayed with the preparation of (I-1) 2,6-dimethyl-1H,5H-[1,4]dithiino[2,3-c:5,6-c′]dipyrrole-1,3,5,7(2H,6H)-tetrone at the stated rate of application. The next day the plants are inoculated with an aqueous conidia suspension of the causal agent of apple scab (Venturia inaequalis) and then remain for 1 day in an incubation cabinet at approximately 20° C. and a relative atmospheric humidity of 100%. The plants are then placed in a greenhouse at approximately 21° C. and a relative atmospheric humidity of approximately 90%. The test is evaluated 10 days after the inoculation. […]

[8] = test system: Phytophthora infestans; conditions: tomatoes, evaluated 3 days after inoculation
[9] = test system: Sphaerotheca fidiginea; assay: Sphaerotheca test (cucumbers)/preventive, Example B: (I-1) sprayed first, biological control agent 4 h later; conditions: (I-1) alone 50 ppm a.i., evaluated 7 days after inoculation
Description: as §1, §2
Young plants are sprayed with the preparation of (I-1) 2,6-dimethyl-1H,5H-[1,4]dithiino[…]dipyrrole-1,3,5,7(2H,6H)-tetrone at the stated rate of application. 4 hours later and after the spray coating has dried on, the plants are sprayed with the aqueous preparation of the biological control agents, e.g. Serenade® WPO, at the stated rate of application. The next day the plants are inoculated with an aqueous spore suspension of Sphaerotheca fidiginea. The plants are then placed in a greenhouse at approximately 23° C. and a relative atmospheric humidity of approximately 70%. The test is evaluated 7 days after the inoculation. 0% means an efficacy which corresponds to that of the untreated control, while an efficacy of 100% means that no disease is observed.

SMILES: Cn1c(=O)c2sc3c(=O)n(C)c(=O)c3sc2c1=O [(I-1), 2,6-dimethyl-1H,5H-[1,4]dithiino[2,3-c:5,6-c′]dipyrrole-1,3,5,7(2H,6H)-tetrone]
- Efficacy in % found [1]: 21%
- Efficacy in % found [2]: 4%
- Efficacy in % found [3]: 49%
- Efficacy in % found [4]: 84%
- Efficacy in % found [5]: 35%
- Efficacy in % found [6]: 0%
- Efficacy in % found [7]: 48%
- Efficacy in % found ([8]; (I-1) alone 12.5 ppm a.i.): 15%
- Efficacy in % found ([8]; (I-1) alone 25 ppm a.i.): 40%
- Efficacy in % found [9]: 0%
